Measured values published in US20230093861A1, “RAPAMYCIN ANALOGS AS MTOR INHIBITORS” (Revolution Medicines, Inc., priority 2017, published 2023).
Like-named read-outs stand apart in the source and are kept apart here.

What was measured:
P-P70S6K (T389) = experiment: Cell based AlphaLISA assay, inhibition of P-P70S6K (T389) (mTORC1 substrate phosphorylation) in MDA-MB-468 cells; conditions: Homo sapiens, 4 h, AlphaLISA, two to four hours at 37° C., read-out: pIC50 for Inhibition of mTORC1 and mTORC2 Substrate Phosphorylation, P-P70S6K-(T389) (converted)
How it was run: (§1)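 After treatment, cells were lysed in the kit's buffer once assay medium was withdrawn. Duplicate Alpha measurements tracked each phospho-epitope, and dose-response data were fitted to IC50 following normalization to control wells.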

P-4E-BP1 (T37/46) = experiment: Cell based AlphaLISA assay, inhibition of P-4E-BP1 (T37/46) (mTORC1 substrate phosphorylation) in MDA-MB-468 cells; conditions: Homo sapiens, AlphaLISA, two to four hours at 37° C., read-out: pIC50 for Inhibition of mTORC1 and mTORC2 Substrate Phosphorylation, P-4E-BP1-(T37/46) (converted)
How it was run: as §1

P-Akt (S473) = experiment: Cell based AlphaLISA assay, inhibition of P-Akt (S473) (mTORC2 substrate phosphorylation) in MDA-MB-468 cells; conditions: Homo sapiens, AlphaLISA, two to four hours at 37° C., read-out: pIC50 for Inhibition of mTORC1 and mTORC2 Substrate Phosphorylation, p-AKT 1/2/3 -(S473) (converted)
How it was run: as §1

Compound | IC50 (P-P70S6K (T389)) [µM] | IC50 (P-4E-BP1 (T37/46); MDA-MB-468, 4 h) [µM] | IC50 (P-Akt (S473); MDA-MB-468, 4 h) [µM] | IC50 (P-4E-BP1 (T37/46); 4 h) [µM] | IC50 (P-Akt (S473); 4 h) [µM]
CO[C@H]1C[C@@H]2CC[C@@H](C)[C@@](O)(O2)C(=O)C(=O)N2CCCC[C@H]2C(=O)O[C@H]([C@H](C)C[C@@H]2CC[C@H](n3cc(COC(=O)NCCOCCOCCOCCC(=O)NCCOCCOCCOCCC(=O)NCCCCn4nc(-c5cc6cc(O)ccc6[nH]5)c5c(N)ncnc54)nn3)[C@H](OC)C2)C/C(=N/OC(C)(C)C)[C@H](C)/C=C(\C)[C@@H](O)[C@@H](OC)C(=O)[C@H](C)C[C@H](C)/C=C/C=C/C=C/1C [Example 161] | > 1 | > 1 | > 1 | – | –
CO[C@H]1C[C@@H]2CC[C@@H](C)[C@@](O)(O2)C(=O)C(=O)N2CCCC[C@H]2C(=O)O[C@H]([C@H](C)C[C@@H]2CC[C@H](n3cc(CCCC(=O)NCCOCCOCCOCCC(=O)NCCOCCOCCC(=O)NCCCCn4nc(-c5ccc6oc(N)nc6c5)c5c(N)ncnc54)nn3)[C@H](OC)C2)C[C@@H](OC)[C@H](C)/C=C(\C)[C@@H](O)[C@@H](OC)C(=O)[C@H](C)C[C@H](C)/C=C/C=C/C=C/1C [Example 162] | 0.001 to 0.01 | 0.0316 to 1 | > 1 | – | –
CCO[C@@H]1C[C@@H]([C@H](C)C[C@@H]2CC[C@H](n3cc(CCCC(=O)NCCOCCOCCOCCC(=O)NCCOCCOCCOCCC(=O)NCCCCn4nc(-c5cc6cc(O)ccc6[nH]5)c5c(N)ncnc54)nn3)[C@H](OC)C2)OC(=O)[C@@H]2CCCCN2C(=O)C(=O)[C@]2(O)O[C@@H](CC[C@H]2C)C[C@H](OC)/C(C)=C/C=C/C=C/[C@@H](C)C[C@@H](C)C(=O)[C@H](OC)[C@H](O)/C(C)=C/[C@H]1C [Example 168] | 0.01 to 1 | 0.0316 to 1 | > 1 | – | –
CO[C@H]1C[C@@H]2CC[C@@H](C)[C@@](O)(O2)C(=O)C(=O)N2CCCC[C@H]2C(=O)O[C@H]([C@H](C)C[C@@H]2CC[C@H](n3nncc3-c3cccc(-c4cnc(N5CCN(S(=O)(=O)CCc6cn(CCOCCOCCOCCC(=O)NCCCCn7nc(-c8ccc9oc(N)nc9c8)c8c(N)ncnc87)nn6)CC5)nc4)c3)[C@H](OC)C2)CC(=O)[C@H](C)/C=C(\C)[C@@H](O)[C@@H](OC)C(=O)[C@H](C)C[C@H](C)/C=C/C=C/C=C/1C [Example 35] | < 0.001 | < 0.00316 | 0.00316 to 0.0316 | – | –
CO[C@H]1C[C@@H]2CC[C@@H](C)[C@@](O)(O2)C(=O)C(=O)N2CCCC[C@H]2C(=O)O[C@H]([C@H](C)C[C@@H]2CC[C@@H](OCCCCc3cn(CCOCCOCCOCCOCCOCCOCCOCCOCCC(=O)NCc4ccc(Cn5nc(-c6ccc7oc(N)nc7c6)c6c(N)ncnc65)cc4)nn3)[C@H](OC)C2)CC(=O)[C@H](C)/C=C(\C)[C@@H](O)[C@@H](OC)C(=O)[C@H](C)C[C@H](C)/C=C/C=C/C=C/1C [Example 85] | < 0.001 | – | – | < 0.00316 | 0.00316 to 0.0316
CO[C@H]1C[C@@H]2CC[C@@H](C)[C@@](O)(O2)C(=O)C(=O)N2CCCC[C@H]2C(=O)O[C@H]([C@H](C)C[C@@H]2CC[C@@H](OCCOCc3cn(CCOCCOCCOCCOCCOCCOCCOCCOCCC(=O)NCCCCn4nc(-c5ccc6oc(N)nc6c5)c5c(N(C)C)ncnc54)nn3)[C@H](OC)C2)CC(=O)[C@H](C)/C=C(\C)[C@@H](O)[C@@H](OC)C(=O)[C@H](C)C[C@H](C)/C=C/C=C/C=C/1C [Example 9] | < 0.001 | > 1 | > 1 | – | –
CO[C@H]1C[C@@H]2CC[C@@H](C)[C@@](O)(O2)C(=O)C(=O)N2CCCC[C@H]2C(=O)O[C@H]([C@H](C)C[C@@H]2CC[C@H](n3cc(-c4cnc(N5CCN(c6ncc(C(=O)NCCOCCOCCOCCOCCOCCC(=O)NCCCCn7nc(-c8cc9cc(O)ccc9[nH]8)c8c(N)ncnc87)cn6)CC5)nc4)nn3)[C@H](OC)C2)CC(=O)[C@H](C)/C=C(\C)[C@@H](O)[C@@H](OC)C(=O)[C@H](C)C[C@H](C)/C=C/C=C/C=C/1C [Example 119] | < 0.001 | > 1 | > 1 | – | –
CO[C@H]1C[C@@H]2CC[C@@H](C)[C@@](O)(O2)C(=O)C(=O)N2CCCC[C@H]2C(=O)O[C@H]([C@H](C)C[C@@H]2CC[C@H](n3cc(COC(=O)NCCOCCOCCOCCOCCC(=O)NCCOCCOCCOCCOCCC(=O)NCCCCn4nc(-c5ccc6oc(N)nc6c5)c5c(N)ncnc54)nn3)[C@H](OC)C2)CC(=O)[C@H](C)/C=C(\C)[C@@H](O)[C@@H](OC)C(=O)[C@H](C)C[C@H](C)/C=C/C=C/C=C/1C [Example 125] | 0.001 to 0.01 | 0.00316 to 0.0316 | 0.00316 to 0.0316 | – | –
CO[C@H]1C[C@@H]2CC[C@@H](C)[C@@](O)(O2)C(=O)C(=O)N2CCCC[C@H]2C(=O)O[C@H]([C@H](C)C[C@@H]2CC[C@H](n3cc(COCCOCCOCCOCCOCCOCCOCCOCCOCCOCCC(=O)NCCCCn4nc(-c5cc6cc(O)ccc6[nH]5)c5c(N)ncnc54)nn3)[C@H](OC)C2)CC(=O)[C@H](C)/C=C(\C)[C@@H](O)[C@@H](OC)C(=O)[C@H](C)C[C@H](C)/C=C/C=C/C=C/1C [Example 196] | 0.001 to 0.01 | 0.00316 to 0.0316 | 0.0316 to 1 | – | –
CO[C@H]1C[C@@H]2CC[C@@H](C)[C@@](O)(O2)C(=O)C(=O)N2CCCC[C@H]2C(=O)O[C@H]([C@H](C)C[C@@H]2CC[C@H](n3cc(CCCC(=O)NCCOCCOCCOCCC(=O)NCCOCCOCCOCCC(=O)NCCCCn4nc(-c5ccc6oc(N)nc6c5)c5c(N)ncnc54)nn3)[C@H](OC)C2)CC(=O)[C@H](C)/C=C(\C)[C@@H](O)[C@@H](OC)C(=O)[C@H](C)C[C@H](C)/C=C/C=C/C=C/1C [Example 130] | 0.001 to 0.01 | 0.00316 to 0.0316 | 0.00316 to 0.0316 | – | –
CO[C@H]1C[C@@H]2CC[C@@H](C)[C@@](O)(O2)C(=O)C(=O)N2CCCC[C@H]2C(=O)O[C@H]([C@H](C)C[C@@H]2CC[C@@H](OCc3cccc(-c4cnc(N5CCN(S(=O)(=O)CCc6cn(CCOCCOCCOCCOCCC(=O)NCCCCn7nc(-c8ccc9oc(N)nc9c8)c8c(N)ncnc87)nn6)CC5)nc4)c3)[C@H](OC)C2)CC(=O)[C@H](C)/C=C(\C)[C@@H](O)[C@@H](OC)C(=O)[C@H](C)C[C@H](C)/C=C/C=C/C=C/1C [Example 26] | < 0.001 | < 0.00316 | 0.00316 to 0.0316 | – | –
CO[C@H]1C[C@@H]2CC[C@@H](C)[C@@](O)(O2)C(=O)C(=O)N2CCCC[C@H]2C(=O)O[C@H]([C@H](C)C[C@@H]2CC[C@@H](O)[C@H](OC)C2)C[C@@H](OC)[C@H](C)/C=C(\C)[C@@H](O)[C@@H](OC)C(=NOCc2cn(CCOCCOCCOCCOCCC(=O)NCCCCn3nc(-c4ccc5oc(N)nc5c4)c4c(N)ncnc43)nn2)[C@H](C)C[C@H](C)/C=C/C=C/C=C/1C [Example 16] | > 1 | > 1 | > 1 | – | –
CO[C@H]1C[C@@H]2CC[C@@H](C)[C@@](O)(O2)C(=O)C(=O)N2CCCC[C@H]2C(=O)O[C@H]([C@H](C)C[C@@H]2CC[C@@H](O)[C@H](OC)C2)C[C@@H](OC)[C@H](C)/C=C(\C)[C@@H](O)[C@@H](OC)/C(=N\OCc2cn(CCOCCOCCOCCOCCOCCOCCC(=O)NCCCCn3nc(-c4ccc5oc(N)nc5c4)c4c(N)ncnc43)nn2)[C@H](C)C[C@H](C)/C=C/C=C/C=C/1C [Example 15] | 0.001 to 0.01 | 0.00316 to 0.0316 | 0.0316 to 1 | – | –
CCO[C@@H]1C[C@@H]([C@H](C)C[C@@H]2CC[C@H](n3cc(COC(=O)NCCOCCOCCOCCC(=O)NCCOCCOCCC(=O)NCCCCn4nc(-c5ccc6oc(N)nc6c5)c5c(N)ncnc54)nn3)[C@H](OC)C2)OC(=O)[C@@H]2CCCCN2C(=O)C(=O)[C@]2(O)O[C@@H](CC[C@H]2C)C[C@H](OC)/C(C)=C/C=C/C=C/[C@@H](C)C[C@@H](C)C(=O)[C@H](OC)[C@H](O)/C(C)=C/[C@H]1C [Example 147] | 0.01 to 1 | 0.0316 to 1 | > 1 | – | –
CO[C@H]1C[C@@H]2CC[C@@H](C)[C@@](O)(O2)C(=O)C(=O)N2CCCC[C@H]2C(=O)O[C@H]([C@H](C)C[C@@H]2CC[C@H](n3cc(COC(=O)NCCOCCOCCOCCC(=O)NCCOCCOCCOCCC(=O)NCCCCn4nc(-c5ccc6oc(N)nc6c5)c5c(N)ncnc54)nn3)[C@H](OC)C2)C[C@@H](OC)[C@H](C)/C=C(\C)[C@@H](O)[C@@H](OC)C(=O)[C@H](C)C[C@H](C)/C=C/C=C/C=C/1C [Example 145] | 0.001 to 0.01 | 0.0316 to 1 | > 1 | – | –
CO[C@H]1C[C@@H]2CC[C@@H](C)[C@@](O)(O2)C(=O)C(=O)N2CCCC[C@H]2C(=O)O[C@H]([C@H](C)C[C@@H]2CC[C@H](n3nncc3-c3cccc(-c4cnc(N5CCN(Cc6cn(CCOCCOCCOCCOCCOCCC(=O)NCCCCn7nc(-c8ccc9oc(N)nc9c8)c8c(N)ncnc87)nn6)C(CO)C5)nc4)c3)[C@H](OC)C2)CC(=O)[C@H](C)/C=C(\C)[C@@H](O)[C@@H](OC)C(=O)[C@H](C)C[C@H](C)/C=C/C=C/C=C/1C (stereo partly drawn) [Example 32] | 0.001 to 0.01 | 0.00316 to 0.0316 | 0.00316 to 0.0316 | – | –
